For this experiment, the target named is PI3-kinase p110α (Bos taurus). The experiment can be described thus: The test compounds and enzyme were mixed in buffer, and the substrate and [gamma-33P] ATP/ATP were added to the mixture to initiate the reaction. After allowing the reaction to proceed at room temperature for 120 min, wheat germ agglutinin-coated SPA beads (Amersham) was added. The mixture was left to stand for 5 min and then centrifuged. Radi. Conditions: pH 7.4.

Some results are limits rather than exact numbers.

In the case of `Cc1nc2ccc(Cl)cn2c1-c1ccn(S(=O)(=O)c2ccc([N+](=O)[O-])cc2)n1` [3-{6-chloro-2-methylimidazo[1,2-a]pyridin-3-yl}-1-[(4-nitrobenzene)sulfonyl]-1H-pyrazole], the half-maximal inhibitory concentration (IC50) (in general, the concentration at which inhibition is half-maximal) was above 30000 nM.

For `Cc1ccc([N+](=O)[O-])cc1S(=O)(=O)n1ccc(-c2cnc3ccc(Cl)cn23)c1` [3-{6-chloroimidazo[1,2-a]pyridin-3-yl}-1-[(2-methyl-5-nitrobenzene)sulfonyl]-1H-pyrrole], the concentration for half-maximal inhibition (IC50) stood at 100 nM.
